# Reference: patent US20140303109A1 (priority 2010, published 2014)
# Columns and labels:
# [1] = tested on: NF-κB DNA binding activity; experiment: EMSA for NF-κB DNA binding activity, three PC lines; format: cell-based, human; settings: 72 h; CDF/CUR 1 or 4 μMol/L, GEM 10 nMol/L
# Description: The DNA binding activity of the nuclear transcription factor, NF-κB was assessed in the BxPC-3, MIAPaCa-E, and MIAPaCa-M cell lines by EMSA. […] The cells were lysed in 400 μl of lysis buffer and the reaction was set up as described earlier in Ali, et al., id. The gel was scanned using an Odyssey Infrared Imaging System, (LI-COR, Inc., Lincoln, Nebr.). Equal protein loading was ensured by immunoblotting 10 μg of nuclear protein and probing with anti-retinoblastoma antibody.
# [2] = tested on: NF-κB DNA binding activity; experiment: EMSA for NF-κB DNA binding activity in tumor tissue; format: in vivo, mice; settings: MIA PaCa-2 tumors
# Description: Nuclear extracts were prepared from tumor tissue induced by the MIA PaCa-2 cells using an homogenizer with 400 μl of ice cold lysis buffer extracted as described earlier. EMSA was performed using the Odyssey Infrared Imaging System with NF-κβ 1RDye labeled oligonucleotide from LI-COR, Inc. (Lincoln, Nebr.). An NF-Kβ competition control study was conducted using unlabeled NF-Kβ consensus oligonucleotide. The samples were loaded and run at 30 mA for 1 hour. The gel was scanned using Odyssey Infrared Imaging System (LI-COR, Inc.).
# PGE2 = PGE2 immunoassay, three PC lines; format: cell-based, human; settings: 24 h serum-free; CDF or CUR 1-4 μMol/L, GEM 10 nMol/L
# miR-200b and miR-200c = experiment: Real-time RT-PCR of miR-200b and miR-200c in PC cell lines; format: cell-based, human; settings: 72 h; BxPC-3, MIAPaCa-E, MIAPaCaM
# Description: The expression of miRNAs (miRNA-200a, miR-200b, and miR-21) in all three pancreatic cancer cell lines, was measured with a TaqMan MicroRNA Assay kit (Applied Biosystems, Carlsbad, Calif.) following the manufacturer's protocol. […] Real-time RT-PCR reactions were then carried out in a total volume of 25 μl reaction mixture, as described by Li, et al., id., using Smart Cycler II (Cepheid, Sunnyvale, Calif.). The data were analyzed using Ct method and were normalized by RNU6B expression in each sample.
smiles,measurement,setting,value
"Nc1ccn([C@@H]2O[C@H](CO)[C@@H](O)C2(F)F)c(=O)n1 [GEM, gemcitabine]",NF-κβ DNA binding activity,[1],activation of NF-κβ in all three cell lines
same,NF-κβ activation in tumor tissue,[2],activated NF-κβ levels
same,PGE2 secretion level,PGE2,substantial increase in the level of PGE2 secretion
same,expression of miR-200b and miR-200c,miR-200b and miR-200c,increased expression of miR-200b and miR-200c
